# Test results taken from US7455861B2, “Angelicae sinensis extracts useful for treatment of cancers” (priority 2004, dated 2008).
# Where two headings read alike, the source gives them in different places.
# Columns and labels:
# J5 = assay: Cytotoxicity (IC50) on J5; type: cell-based; settings: Homo sapiens
# Method: (§1) Human tumor cell lines (MCF-7, CL1-5, HT-29, Caco-2), human umbilical vascular endothelial cells (HUVEC), and human dermal fibroblasts (HDF) were tested for sensitivity on Angelicae sinensis extracts, ligustilide, n-butylidenephthalide and its derivatives in vitro. The DBTRG-05MG, BCM, HL-60 and J5 cells were grown in RPMI-1640 medium containing 10% fetal calf serum and 100 ng/ml penicillin and […] streptomycin at 37° C. in a humidified atmosphere with 5% CO2. The G5T/VGH, RG2, Ni 8, SVEC and Balb/3T3 cells were cultured in DMEM with 10% fetal calf serum and 100 ng/ml penicillin and […] streptomycin at 37° C. in 5% CO2. Mycoplasma infection of the culture cells was excluded by PCR screening methods before each experiment.
# (§2) The effects on cell viability after the treatments with different concentrations of the Angelicae sinensis extracts or the active components purified therefrom were evaluated by modified MTT assay in triplicate. Briefly, the cells (5×10^3) were incubated into 96-well plates containing 100 μl of a growth medium. The cells were permitted to adhere for 24 hours, then treated with 100 μl of the herbal extracts or the active components dissolved in the medium. The control contained DMSO of <0.02% (v/v). […] Absorbance at 550 nm of the solutions was measured with MRX Microtiter Plate Luminometer (DYNEX, USA). The absorbance of untreated cells was considered as 100%. […]
# HT-29 = assay: Cytotoxicity (IC50) on HT-29; type: cell-based; settings: Homo sapiens
# Excerpt: Human umbilical vascular endothelial cells (HUVECs) were purchased from Cascade Biologics, Inc. (USA). HUVECs were maintained in Medium 200 (Cascade Biologics, Inc. USA) supplemented with 10% fetal bovine serum (FBS; Gibco BRL) and low serum growth supplement (LSGS; Cascade Biologics, Inc. USA). Human dermal fibroblasts (HDFs) were purchased from Cascade Biologics, Inc. (USA). HDFs were maintained in Medium 106 (Cascade Biologics, Inc. USA) supplemented with 10% FBS and low serum growth supplement (LSGS; Cascade Biologics, Inc. USA). The human colon adenocarcinoma cell lines HT-29 were purchased from the ATCC (Manassas, Va. USA). HT-29 were maintained in Dubecco's Modified Eagle Medium (DMEM; Gibco) supplemented with 10% FBS and 100 ng/ml penicillin and […] streptomycin (Life Technologies, Inc., Grand Island, N.Y., USA). […] The absorbance was measured at 450 nm, using a microplate reader with a reference wavelength at 600 nm or over. […]
# The effects on cell viability after the treatments with different concentrations of the Angelicae sinensis extracts or the active components purified therefrom were evaluated by modified MTT assay in triplicate. […] Absorbance at 550 nm of the solutions was measured with MRX Microtiter Plate Luminometer (DYNEX, USA). The absorbance of untreated cells was considered as 100%. […]
# HCT15 = assay: Cytotoxicity (IC50) on HCT15; type: cell-based; settings: Homo sapiens, HCT-15
# Method: (§3) The effects on cell viability after the treatments with different concentrations of the Angelicae sinensis extracts or the active components purified therefrom were evaluated by modified MTT assay in triplicate. Briefly, the cells (5×10^3) were incubated into 96-well plates containing 100 μl of a growth medium. The cells were permitted to adhere for 24 hours, then treated with 100 μl of the herbal extracts or the active components dissolved in the medium. The control contained DMSO of <0.02% (v/v). After 24, 48 and 72 h incubation, the drug-containing medium was replaced by 50 μl of fresh medium, and cells in each well were incubated in 50 μl of 400 μg/ml MTT for 6-8 h. The medium and MTT were removed later and 100 μl of DMSO was added to each well and to the control, to dissolve the soluble components. Absorbance at 550 nm of the solutions was measured with MRX Microtiter Plate Luminometer (DYNEX, USA). The absorbance of untreated cells was considered as 100%. To evaluate the effects of the extracts or the active components on cell growth rate of GBM cells, 5×10^3 exponentially growing cells were treated with different concentrations for 24, 48, or 72 h. The cytotoxicity of each test substance was determined as an IC50 value, which represents the drug concentration required to cause 50% inhibition. All experiments in this study were performed in triplicate.
# HUVEC = assay: Tube formation of HUVEC; type: cell-based, human
# [1] = Cytotoxicity (IC50) on HDF; type: cell-based, human; settings: human, human dermal fibroblasts (HDF), normal cells; Table 1, value in parentheses
# Excerpt: Human umbilical vascular endothelial cells (HUVECs) were purchased from Cascade Biologics, Inc. (USA). HUVECs were maintained in Medium 200 (Cascade Biologics, Inc. USA) supplemented with 10% fetal bovine serum (FBS; Gibco BRL) and low serum growth supplement (LSGS; Cascade Biologics, Inc. USA). Human dermal fibroblasts (HDFs) were purchased from Cascade Biologics, Inc. (USA). HDFs were maintained in Medium 106 (Cascade Biologics, Inc. USA) supplemented with 10% FBS and low serum growth supplement (LSGS; Cascade Biologics, Inc. USA). The human colon adenocarcinoma cell lines HT-29 were purchased from the ATCC (Manassas, Va. USA). HT-29 were maintained in Dubecco's Modified Eagle Medium (DMEM; Gibco) supplemented with 10% FBS and 100 ng/ml penicillin and […] streptomycin (Life Technologies, Inc., Grand Island, N.Y., USA). For the proliferation assay of cell in log growth (G1), the cells were harvested at 60-80% of confluence. 100 μl of cell suspensions were dispensed onto a Falcon 96-well plates The densities were 6×10^3 cells/well in Medium 200 (for HUVECs), and 9×10^3 cells/well in Medium 106 (for HDFs), and 5×10^3 cells/well in DMEM (for HT-29) supplemented with 10% FBS. The cells were pre-incubated for 24 hours in an incubator (Humidified atmosphere, e.g., at 37° C., 5% CO2). 10 μl of toxicant of various concentrations were added into the culture medium of the plate. The cell cultures were incubated for 48 hours. 10 μl of the Cell Counting Kit-8 (CCK-8; DOJINDO) solution were added and the cell cultures incubated for 1˜4 hours in the incubator. The absorbance was measured at 450 nm, using a microplate reader with a reference wavelength at 600 nm or over.
# as §1
# as §3, with “To evaluate the effects of the extracts or the active components on cell growth rate of GBM cells, 5×10^3 exponentially growing cells were treated with different concentrations for 24, 48, or 72 h. The cytotoxicity of each test substance was determined as an IC50 value, which represents the drug concentration required to cause 50% inhibition. All experiments in this study were performed in triplicate.” left out
# MCF-7 = assay: Cytotoxicity (IC50) on MCF-7; type: cell-based; settings: Homo sapiens, MCF7
# Method: as §1, §2
# RG2 = assay: Cytotoxicity (IC50) on RG2; type: cell-based, rat; settings: Rattus norvegicus, RG2
# Method: as §1, §3
# brain tumor cell lines = assay: Cytotoxicity (IC50) on brain tumor cell lines, pooled statement; type: cell-based; settings: read-out: IC50 to brain tumor cell lines
# Method: as §3
compound,measurement,setting,value
"CCCC=C1OC(=O)c2ccccc21 [BP, n-Butylidenephthalide]",IC50,J5; Table 2,15 to 20 µg/mL
same,IC50,"J5; Table 2, value in parentheses",79.8 to 106 µM
same,IC50,HT-29; Table 2,15 to 97 µg/mL
same,IC50,"HT-29; Table 2, value in parentheses",79.8 to 516 µM
same,IC50,HCT15; Table 2,25 to 30 µg/mL
same,IC50,"HCT15; Table 2, value in parentheses",133 to 160 µM
same,Inhibition Tube Formation,HUVEC,531.3 µg/mL
same,Inhibition Tube Formation,HUVEC; value in parentheses,(2826 μM)
same,IC50,[1],1600 µM
same,IC50,"MCF-7; Table 1, value in parentheses",> 106 µM
same,IC50,"MCF-7; cancer cells, Table 1",> 20 µg/mL
same,IC50,"RG2; Table 1, value in parentheses",7.45 µM
same,IC50,RG2; Table 2,1.4 µg/mL
same,IC50,"RG2; Table 2, value in parentheses",7.45 µM
same,IC50,"RG2; cancer cells, Table 1",1.4 µg/mL
same,IC50,brain tumor cell lines,1.4 to 10 µg/mL
